Laboratory results taken from patent publication US11197856B2, “Bicyclic compounds and methods for their use in treating autism” (priority 2013, dated 2021).

Key:
p-ERK1/2 = test: Phospho-flow cytometry of lymphocytes, p-ERK1/2; type: in vivo; conditions: fmr1-knockout mice; 15, 30, 60 and 240 minutes after a single treatment
Text: Lymphocytes are isolated from five fmr1-knockout and five wild-type titter mate control mice, per study time after injection with cG-2-AllylP. Lymphocytes are examined for activation of two signaling effectors, p-ERK1/2 and p-Akt using phosphorylation status as a measure of activation by flow cytometry (phospho-flow).
1. Flow cytometry total and phosphorylated ERK in lymphocytes

[1] = test system: fmr1-knockout and wild-type animals; test: Contextual fear conditioning (freezing behavior); type: in vivo, mice
Text: Fear conditioning to either a cure or a context represents a form of associative learning that has been well used in many species. The dependent measure used in contextual (delay) fear conditioning is a freezing response that takes place following pairing of an unconditioned stimulus (foot shock), with a conditioned stimulus (CS), a particular context and/or such a cue. If in a conditioning context one administers a foot shock that is paired with atone, there will be learning not only to the tone, but also to the context.
Contextual fear conditioning is a bask conditioning procedure. It involves taking an animal and placing it in a novel environment, providing an aversive stimulus, and then removing it. […] Freezing is a response to fear, which has been defined as “absence of movement except for respiration.” This freezing behavior may last from seconds to minutes depending on the strength of the aversive stimulus, the number of presentations, and the degree of learning achieved by the subject.
The device used in this study is depicted in FIG. 27. An unconditioned stimulus (mild shock to the feet) was applied, and the conditioned stimulus was a tone applied along with the shock to the feet. Under these conditions, the animals associate the unconditioned stimulus with both the conditioned stimulus and the context of the stimuli. Animals were tested for […].

adult MeCP2+/- mice = test: Ocular dominance (OD) plasticity, optical imaging of intrinsic signals; type: in vivo; conditions: 4 days monocular deprivation
Experimental: Adult (>P60) wild type (SVEV or BL6) and MeCP2 (+/−) mutant females (BL6) are used for this experiment. The wild type control group is composed of both wild type littermates of MeCP2+/− females or wild type age matched SVEV females. For monocular deprivation, animals are anesthetized with Avertin (0.016 ml/g) and the eyelids of one eye is sutured for 4 days. Prior to imaging, the suture is removed and the deprived eye re-opened. Only animals in which the deprivation sutures are intact and the condition of the deprived eye appears healthy are used for the imaging session. For cG-2-AllylP signaling activation, a solution containing cG-2-AllylP is injected intra-peritoneally (IP) daily for the entire period of deprivation. For the imaging sessions mice are anesthetized with urethane (1.3 g/kg; 20% of the full dosage is administered IP each 20-minutes up to the final dosage, 0.02 ml of cloroprothixene 1% is also injected together with the first administration). The skull is exposed and a custom-made plate is glued on the head to minimize movement. The skull is thinned over VI with a dremel drill and covered with an agarose solution in saline (1.3%) and a glass coverslip. During the imaging session, the animal is constantly oxygenated, its temperature maintained with a heating blanket and the eyes periodically treated with silicone oil; physiological conditions are constantly monitored. […]

[2] = test system: fmr1-knockout mice and wild-type littermates; test: Open Field (OF) test; type: in vivo; conditions: for exploratory behavior (number of squares entered): fmr1-knockout animals; for number of squares entered: wild-type animals
Experimental: The fmr1-knockout 2 mice (C57BL/6 background) were housed in groups of the same genotype in a temperature and humidity controlled room with a 12-h light-dark cycle (lights on 7 am to […]). Testing was conducted during the light phase. Food and water were available ad libitum. Testing was conducted on fmr1-knockout mice and their wild-type littermates. Experiments were conducted in line with the requirements of the UK Animals (Scientific Procedures) Act, 1986.
The Open Field (OF) test is a combined test that is used to determine anxiety/hyperactivity, and for habituation to a novel environment, one of the most elementary forms of learning, in which decreased exploration as a function of repeated exposure to the same environment is taken as an index of memory. This is normally studied in two sessions of exposure to the open field, a 10-min and a 24 hr habituation session.
The device used for this study is a grey PVC enclosed arena 50×30 cm divided into 10 cm squares. Mice are brought to the experimental room 5-20 min before testing. A mouse is placed into a corner square facing the corner and observed for 3 min. The number of squares entered (whole body) and rears (both front paws off the ground, but not as part of grooming) are counted. The latency to the first rear is also noted. The movement of the mouse around the field was recorded with a video tracking device for 300s (vNT4.0, Viewpoint). The latency for the mouse to enter the brightest, central part of the field total time spent in this central region, and total activity (in terms of path length in centimeters), were recorded.
The open field (OF) test is a test used to characterize explorative behavior, anxiety, and or hyperactivity in animals habituated to daily handling under novel and familiar conditions. During exposure to the open field mice will habituate to the environment and thus explore less, decreasing the amount movement they show over time.
In the present experiment, we recorded movement and rearing during an initial exposure (T1), during a second exposure after 10 minutes (T2) and during a third exposure after 24 hours (T3). Failures to reduce locomotion or rearing at 10 minutes and 24 hours indicate deficits in short and long term memory, respectively.

Akt = test: Phosphorylated AKT by Western blot; type: in vivo, mice; conditions: full brain lysates; fmr1-knockout animals; normalized to GAPDH
Experimental: (§1) Phosphorylation levels of ERK1/2 and Akt of full brain lysates were evaluated using Western blots. The mice were sacrificed and the brains removed 12 days after the last injection, and immediately after the last behavioral test. Other studies measured pERK and pAkt in blood lymphocytes. The results of Western analysis were normalized to the amount of GAPDH protein seen in each blot.

ERK1/2 = test: Phosphorylated ERK by Western blot; type: in vivo, mice; conditions: full brain lysates; fmr1-knockout animals vs vehicle
Experimental: as §1

C=CC[C@]12CCCN1C(=O)CNC2=O [cG-2-AllylP, (8aS)-Allyl-hexahydropyrrolo[1,2-a]pyrazine-1,4-dione]
mean fluorescent intensity (MFI) for p-ERK1/2 (p-ERK1/2): decreases at all time points | time spent in freezing behavior [1]: substantial and statistically significant increase in the time spent in freezing behavior | OD plasticity (adult MeCP2+/- mice): reduces the OD plasticity | exploratory behavior (number of squares entered) ([2]; T1): significantly reduced the exploratory behavior of fmr1-knockout animals | number of squares entered ([2]; T1): about the same number of squares | exploratory behavior (number of squares entered) ([2]; T2 (10 minutes)): normalized the magnitude of their behavior to that of the wild-type animals | number of squares entered ([2]; T2 (10 minutes)): about 45 squares | exploratory behavior (number of squares entered) ([2]; T3 (24 hours)): normalized exploratory behavior at T3 | number of squares entered ([2]; T3 (24 hours)): 25-30 squares | phosphorylated AKT (Akt): about 0.9 UA units | ERK phosphorylation (ERK1/2): significantly reduced ERK phosphorylation
